The results in this text go back to PubChem BioAssay (NCI).

Structures are written as SMILES. “And” between values parts separate entries of the source, which are not always exact repeats. Identical values can stand only once.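 Following 48 hours of exposure in 96-well plates, responses at five concentrations were used to interpolate endpoints linearly. The concentration for 50% growth inhibition is given as GI50. Definition used: TGI = concentration required for complete inhibition of growth.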

Holding throughout (assay): NCI anticancer screen, dose series, 48 h
In assay [1] the test system is KM12 colon.
The subject of assay [2] is HL-60(TB) leukemia.
Assay [3] concerns CAKI-1 renal.
The test system of assay [4] is SNB-75 CNS.
Assay [5] concerns 786-0 renal.
Assay [6] relates to SR leukemia.
Assay [7] has as its system ACHN renal.
For assay [8], the system named is EKVX NSCLC.
For assay [9], the system named is U251 CNS.

For `COc1cc(/C=C2/C(=O)N(C(=O)OCC(C)C)C(Cc3cc(OC)c(OC)c(C)c3OC)C(=O)N2Cc2ccccc2)c(OC)c(C)c1OC` (stereo unspecified), the TGI in [1], in [2], in assay [3], in assay [4], in assay [5] and in assay [6] was > 100 µM in each case. Moreover, the TGI in assay [7], in [8] and in assay [9] was > 100 µM in each case.

As to `OC(c1ccccc1)(c1ccccc1)c1ccncc1`, the TGI in [1], in assay [2], in [3], in [4], in assay [5] and in assay [6] was > 100 µM throughout. The TGI in [7], in [8] and in assay [9] was > 100 µM each time.

`COc1cc2c(c(OC)c1OC)-c1ccc(SC)c(=O)cc1C(CO)C2` (stereo unspecified): the GI50 in [1], in assay [2], in assay [3], in assay [4], in assay [5] and in [6] was < 0.01 µM in each case. The GI50 in assay [7], in [8] and in assay [9] was < 0.01 µM in each case. Further, the TGI in assay [1] was 0.079 µM; in assay [2], 0.0439 µM; in assay [3], > 100 µM; in assay [5], > 100 µM; in assay [6], 23.8 µM; in assay [7], > 100 µM. The TGI is > 100 µM in assay [8]; 0.728 µM and 0.111 µM in [9].

With `O=C([CH-]C(=O)c1ccccc1)c1ccccc1.O=C([CH-]C(=O)c1ccccc1)c1ccccc1.[La+3].[OH-].[OH3+]`, the GI50 in [2] was 3.87 µM; in assay [3], 17.4 µM; in [4] it was 5.02 µM; in [5] it was 16 µM; in assay [7], 19.6 µM; in assay [8], 14.3 µM. Also, the GI50 in assay [9] is 15.2 µM. Also, the TGI in assay [2] was 22.7 µM; in assay [3], 56.8 µM; in [4] it was 21.6 µM; in [5] it was 65.1 µM; in [7] it was > 100 µM; in [8] it was 51.9 µM. In [9], the TGI was > 100 µM.

Consider `CCOc1ccccc1N1C(=O)C(=O)C(c2nc3ccccc3o2)C(=O)C1=O`, for which the TGI was > 100 µM in assay [2]; > 100 µM in assay [3]; > 100 µM in assay [4]; 65 µM in [5]; > 100 µM in [6]; > 100 µM in [7]. The TGI in [8] and in [9] was > 100 µM in each case.

`CCOC(=O)N1CCN(C=S)CC1`: the TGI in assay [1], in assay [2], in assay [4], in assay [5], in assay [6] and in [7] was > 100 µM each time. Further, the TGI in assay [8] and in [9] was > 100 µM in each case.

Turning to `CCCCNc1nc(C#N)c(N)s1`, the TGI in assay [1], in assay [2], in assay [3], in [4], in [5] and in assay [6] was > 100 µM throughout. The TGI in [7] and in [9] was > 100 µM throughout.

Turning to `C=C(C)C(=O)O[C@H]1CC(=C)[C@@H]2C[C@H](O)[C@](O)(CCl)[C@@H]2[C@H]2OC(=O)C(=C)[C@@H]21`, the GI50 in [1] was 1.8 µM; in assay [2] it was 1.97 µM; in assay [3], 1.94 µM; in assay [4], 6.97 µM; in [5], 1.93 µM; in assay [7], 1.82 µM. Also, the GI50 in assay [8] was 12.3 µM; in assay [9], 2.47 µM. For the same compound, the TGI is 3.99 µM in assay [1]; 4.19 µM in assay [2]; 3.45 µM in [3]; 20.7 µM in assay [4]; 3.88 µM in assay [5]; 3.31 µM in assay [7]. The figures for the TGI in assay [8] and in assay [9] were 25.7 µM and 6.14 µM, respectively.

As for `CC(C)C1CC[C@@H](C)C[C@@]1(O)CC(N)=O` (stereo partly specified), the TGI in assay [1], in assay [3], in assay [4], in assay [5], in assay [6] and in assay [7] was > 100 µM each time. Besides, the TGI in assay [8] and in [9] was > 100 µM each time.

Consider `Cc1cccc(C)c1NC(=O)C(C#N)C1=C(Cl)C(=O)c2ccccc2C1=O` (stereo unspecified), for which the TGI in assay [1] was 34.5 µM; in assay [2], 38.2 µM; in assay [3] it was 38.1 µM; in assay [4], 29.2 µM; in assay [5], 45.7 µM; in assay [6], > 45.8 µM. Moreover, the TGI in assay [7] was 28.8 µM; in assay [8] it was 38.5 µM; in assay [9], 42.7 µM.

In the case of `CN1C(=Nc2ccccc2)SC1=Nc1ccccc1`, the TGI in assay [1] was > 100 µM; in assay [2], > 100 µM; in assay [4] it was 40.3 µM; in assay [5], > 100 µM; in [6], > 100 µM; in [7], > 100 µM. Besides, the TGI in assay [8] and in [9] was > 100 µM in each case.

Regarding `CCS(CC)(CC)CC1CCCC2=CCC(P(=O)(c3ccccc3)c3ccccc3)CC21` (stereo unspecified), the TGI in assay [1] was 30.6 µM; in assay [2], 12.3 µM; in [3], 24.4 µM; in [4] it was 25.4 µM; in [5] it was 26.1 µM; in assay [6], 25.5 µM. In addition, the figures for the TGI in assay [7], in [8] and in [9] were 22.4 µM, 28.4 µM and 23.1 µM, respectively.

`Nc1ccnc(=O)[nH]1`: the TGI in assay [1], in assay [2], in assay [3], in assay [4], in assay [5] and in assay [7] was > 100 µM in each case. Also, the TGI in assay [8] and in assay [9] was > 100 µM in each case.
